pIC50: −log10 of the molar value. Converted amounts (≈) assume the structure as drawn. Like-named read-outs stand apart in the source and are kept apart here.
Legend:
S. aureus RNA polymerase = S. aureus RNA polymerase (Staphylococcus aureus, UniProt P47768+Q2G0N5); assay: Inhibition of Staphylococcus aureus RNA polymerase (fluorescence-detected); format: biochemical
[1] = target: E. coli RNA polymerase σ^70 holoenzyme (Escherichia coli, UniProt P0A8T7+P0A8V2); assay: Inhibition of Escherichia coli RNA polymerase (fluorescence-detected); format: biochemical; conditions: read-out: IC50 E. coli RNAP
Sequence of E. coli RNA polymerase σ^70 holoenzyme (P0A8V2 whole entry, the tested form may be a part): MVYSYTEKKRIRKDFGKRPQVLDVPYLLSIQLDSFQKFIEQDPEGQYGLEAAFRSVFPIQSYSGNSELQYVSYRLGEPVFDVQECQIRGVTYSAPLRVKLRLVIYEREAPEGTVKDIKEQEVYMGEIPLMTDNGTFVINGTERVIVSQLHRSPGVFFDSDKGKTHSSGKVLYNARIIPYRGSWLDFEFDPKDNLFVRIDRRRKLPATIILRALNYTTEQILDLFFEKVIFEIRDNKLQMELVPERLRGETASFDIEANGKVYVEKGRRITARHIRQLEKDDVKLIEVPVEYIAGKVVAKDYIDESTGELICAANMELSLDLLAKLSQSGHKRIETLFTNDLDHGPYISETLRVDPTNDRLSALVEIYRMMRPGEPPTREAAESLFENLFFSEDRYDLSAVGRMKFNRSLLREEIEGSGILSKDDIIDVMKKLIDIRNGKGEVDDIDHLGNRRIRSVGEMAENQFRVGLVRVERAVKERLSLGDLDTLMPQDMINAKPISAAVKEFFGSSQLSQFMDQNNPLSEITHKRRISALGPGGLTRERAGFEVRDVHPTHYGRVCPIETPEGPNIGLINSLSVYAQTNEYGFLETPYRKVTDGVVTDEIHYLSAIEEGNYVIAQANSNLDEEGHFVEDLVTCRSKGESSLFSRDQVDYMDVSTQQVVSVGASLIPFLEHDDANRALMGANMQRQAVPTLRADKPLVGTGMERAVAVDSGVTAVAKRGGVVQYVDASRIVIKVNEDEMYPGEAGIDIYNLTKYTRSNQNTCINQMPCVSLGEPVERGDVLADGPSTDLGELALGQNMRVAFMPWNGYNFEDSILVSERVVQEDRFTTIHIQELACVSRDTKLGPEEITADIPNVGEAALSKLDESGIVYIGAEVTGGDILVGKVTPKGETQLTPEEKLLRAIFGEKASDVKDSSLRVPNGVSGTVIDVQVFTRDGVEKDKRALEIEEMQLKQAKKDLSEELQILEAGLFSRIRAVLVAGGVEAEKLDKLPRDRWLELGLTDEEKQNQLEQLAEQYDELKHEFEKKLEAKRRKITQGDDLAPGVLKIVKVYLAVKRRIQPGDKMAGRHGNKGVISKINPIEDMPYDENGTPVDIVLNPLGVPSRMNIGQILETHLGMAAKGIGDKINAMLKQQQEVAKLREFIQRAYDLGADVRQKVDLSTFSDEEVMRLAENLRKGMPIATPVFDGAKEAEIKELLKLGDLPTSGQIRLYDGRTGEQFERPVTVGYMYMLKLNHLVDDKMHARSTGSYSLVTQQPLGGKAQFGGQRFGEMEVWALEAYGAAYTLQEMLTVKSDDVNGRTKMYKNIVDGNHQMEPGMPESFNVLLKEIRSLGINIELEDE
Sequence of E. coli RNA polymerase σ^70 holoenzyme (P0A8T7 whole entry, the tested form may be a part): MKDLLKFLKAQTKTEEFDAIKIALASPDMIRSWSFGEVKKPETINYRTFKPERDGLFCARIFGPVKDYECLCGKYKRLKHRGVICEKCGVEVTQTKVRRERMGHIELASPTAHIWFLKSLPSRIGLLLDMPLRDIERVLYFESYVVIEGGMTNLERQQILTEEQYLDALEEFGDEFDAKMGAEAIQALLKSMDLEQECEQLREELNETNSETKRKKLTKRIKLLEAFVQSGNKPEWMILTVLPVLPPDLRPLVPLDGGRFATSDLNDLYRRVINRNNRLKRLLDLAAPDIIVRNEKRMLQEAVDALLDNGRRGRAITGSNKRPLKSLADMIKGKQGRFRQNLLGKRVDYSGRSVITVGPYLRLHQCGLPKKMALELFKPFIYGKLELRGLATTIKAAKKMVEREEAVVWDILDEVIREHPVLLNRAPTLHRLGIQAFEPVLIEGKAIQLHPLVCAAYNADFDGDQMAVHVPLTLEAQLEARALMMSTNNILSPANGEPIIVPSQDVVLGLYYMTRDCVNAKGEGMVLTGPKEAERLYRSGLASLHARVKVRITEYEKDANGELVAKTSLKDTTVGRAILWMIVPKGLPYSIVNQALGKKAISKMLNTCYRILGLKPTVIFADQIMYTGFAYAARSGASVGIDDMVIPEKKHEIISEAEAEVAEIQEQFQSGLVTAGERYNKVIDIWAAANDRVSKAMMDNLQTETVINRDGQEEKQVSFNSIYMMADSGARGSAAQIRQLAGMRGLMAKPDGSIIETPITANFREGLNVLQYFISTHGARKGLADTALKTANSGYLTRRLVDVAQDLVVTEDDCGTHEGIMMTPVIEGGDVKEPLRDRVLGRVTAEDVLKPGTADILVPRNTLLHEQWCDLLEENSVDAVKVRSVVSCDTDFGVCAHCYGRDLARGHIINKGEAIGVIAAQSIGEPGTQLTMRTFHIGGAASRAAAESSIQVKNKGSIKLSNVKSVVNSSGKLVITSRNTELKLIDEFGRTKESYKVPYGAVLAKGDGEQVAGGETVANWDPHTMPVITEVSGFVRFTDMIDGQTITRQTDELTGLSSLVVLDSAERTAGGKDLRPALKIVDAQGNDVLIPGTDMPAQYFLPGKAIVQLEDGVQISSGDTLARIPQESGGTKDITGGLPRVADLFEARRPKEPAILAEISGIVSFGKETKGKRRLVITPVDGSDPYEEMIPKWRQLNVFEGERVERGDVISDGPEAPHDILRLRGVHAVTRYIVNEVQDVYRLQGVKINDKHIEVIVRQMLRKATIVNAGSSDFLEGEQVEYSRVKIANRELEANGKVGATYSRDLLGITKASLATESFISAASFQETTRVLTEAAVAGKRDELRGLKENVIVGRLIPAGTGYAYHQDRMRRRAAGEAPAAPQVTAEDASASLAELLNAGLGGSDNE
Sequence of E. coli RNA polymerase σ^70 holoenzyme (P0A7Z4 whole entry partner, the tested form may be a part): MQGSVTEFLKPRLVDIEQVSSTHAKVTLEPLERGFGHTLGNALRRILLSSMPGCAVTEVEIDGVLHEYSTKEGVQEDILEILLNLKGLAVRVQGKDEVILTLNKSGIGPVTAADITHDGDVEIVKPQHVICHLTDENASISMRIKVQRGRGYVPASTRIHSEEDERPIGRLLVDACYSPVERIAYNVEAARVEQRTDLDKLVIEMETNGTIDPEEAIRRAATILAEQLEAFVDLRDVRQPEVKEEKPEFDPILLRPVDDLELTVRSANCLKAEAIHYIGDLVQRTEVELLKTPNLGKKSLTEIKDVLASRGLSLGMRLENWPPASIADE
Sequence of E. coli RNA polymerase σ^70 holoenzyme (P0A800 whole entry partner, the tested form may be a part): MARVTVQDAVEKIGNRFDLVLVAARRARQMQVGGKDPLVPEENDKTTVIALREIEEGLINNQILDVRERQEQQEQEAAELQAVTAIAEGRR
Sequence of E. coli RNA polymerase σ^70 holoenzyme (P00579 whole entry partner, the tested form may be a part): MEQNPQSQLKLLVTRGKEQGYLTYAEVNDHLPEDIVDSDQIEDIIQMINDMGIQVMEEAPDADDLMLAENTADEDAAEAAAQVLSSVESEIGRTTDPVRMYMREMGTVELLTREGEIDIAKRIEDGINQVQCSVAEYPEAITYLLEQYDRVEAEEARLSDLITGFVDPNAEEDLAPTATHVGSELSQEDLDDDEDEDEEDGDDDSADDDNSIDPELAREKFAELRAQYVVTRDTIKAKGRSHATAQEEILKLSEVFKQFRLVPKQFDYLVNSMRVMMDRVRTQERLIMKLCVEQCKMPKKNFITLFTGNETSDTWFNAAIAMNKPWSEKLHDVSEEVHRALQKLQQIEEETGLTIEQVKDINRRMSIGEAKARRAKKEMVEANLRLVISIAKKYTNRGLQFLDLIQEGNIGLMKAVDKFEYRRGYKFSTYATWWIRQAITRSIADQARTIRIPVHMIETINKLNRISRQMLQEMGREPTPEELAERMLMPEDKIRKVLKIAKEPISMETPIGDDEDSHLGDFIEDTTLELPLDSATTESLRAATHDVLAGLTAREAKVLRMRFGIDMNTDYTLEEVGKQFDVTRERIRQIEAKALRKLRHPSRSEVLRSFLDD
Description: (§1) Fluorescence-detected RNA polymerase assays with E. coli RNA polymerase were performed by a modification of the procedure of Kuhlman et al., 2004 [Kuhlman, P., Duff, H. & Galant, A. (2004) A fluorescence-based assay for multisubunit DNA-dependent RNA polymerases. Anal. Biochem. 324, 183-190]. Reaction mixtures contained (20 μl): 0-100 nM test compound, 75 nM E. coli RNA polymerase σ^70 holoenzyme, 20 nM 384 bp DNA fragment containing the bacteriophage T4 N25 promoter, 100 μM ATP, 100 μM GTP, 100 μM UTP, 100 μM CTP, 50 mM Tris-HCl, pH 8.0, 100 mM KCl, 10 mM MgCl2, 1 mM DTT, 10 μg/ml bovine serum albumin, and 5.5% glycerol. Reaction components other than DNA and NTPs were pre-incubated for 10 min at 37° C. Reactions were carried out by addition of DNA and incubation for 5 min at 37° C., followed by addition of NTPs and incubation for 60 min at 37° C. DNA was removed by addition of 1 μl 5 mM CaCl2 and 2 U DNaseI (Ambion, Inc.), followed by incubation for 90 min at 37° C. RNA was quantified by addition of 100 μl RiboGreen RNA Quantitation Reagent (Invitrogen, Inc.; 1:500 dilution in Tris-HCl, pH 8.0, 1 mM EDTA), followed by incubation for 10 min at 25° C., followed by measurement of fluorescence intensity [excitation wavelength=485 nm and emission wavelength=535 nm; QuantaMaster QM1 spectrofluorometer (PTI, Inc.)].

[2] = target: M. tuberculosis RNA polymerase (Mycobacterium tuberculosis, UniProt P9WGY7+P9WGY9); assay: Inhibition of Mycobacterium tuberculosis RNA polymerase (fluorescence-detected); format: biochemical
Description: as §1
Fluorescence-detected RNA polymerase assays with M. tuberculosis RNA polymerase were performed as in Example 17.1, using reaction mixtures containing (20 μl): 0-100 nM test compound, 75 nM M. tuberculosis RNA polymerase core enzyme, 300 nM M. tuberculosis σ^A, 20 nM 384 bp DNA fragment containing the bacteriophage […] N25 promoter, 100 μM ATP, 100 μM GTP, 100 μM UTP, 100 μM CTP, 40 mM Tris-HCl, pH 8.0, 80 mM NaCl, 5 mM MgCl2, 2.5 mM DTT, and 12.7% glycerol.

[3] = tested on: Escherichia coli D21f2tolC; assay: Inhibition of bacterial growth in culture (MIC, spiral gradient endpoint); format: cell-based; conditions: 16 h, read-out: MIC E. coli D21f2tolC
Excerpt: (§2) Minimum inhibitory concentrations (MICs) for Staphylococcus aureus ATCC 12600, Enterococcus faecalis ATCC 19433, Acinetobacter baumannii ATCC 19606, and Escherichia coli D21f2tolC were quantified using spiral gradient endpoint assays, essentially as described [Wallace, A. and Corkill, J. (1989) Application of the spiral plating method to study antimicrobial action. J. Microbiol. Meths. […] Int. J. Exp. Clin. Chemother. 3, 31-38; Schalkowsky S. (1994) Measures of susceptibility from a spiral gradient of drug concentrations. Adv. Exp. Med. Biol. 349, 107-120]. Assays employed exponential-gradient plates containing 150 mm×4 mm Mueller-Hinton II cation-adjusted agar and 0.4-100 μg/ml of test compound. Plates were prepared using an Autoplate 4000 spiral plater (Spiral Biotech, Inc.). Saturated overnight cultures were swabbed radially onto plates, and plates were incubated for 16 h at 37° C. For each culture, the streak length was measured using a clear plastic template (Spiral Biotech, Inc.), the test-compound concentration at the streak endpoint was calculated using the program SGE (Spiral Biotech, Inc.), and the MIC was defined as the calculated test-compound concentration at the streak endpoint.

[4] = tested on: Acinetobacter baumannii ATCC 19606; assay: as above; format: cell-based; conditions: for MIC: Acinetobacter baumannii, ATCC19606, Mueller-Hinton II agar, 16 h at 37° C.
Excerpt: as §2

[5] = tested on: Staphylococcus aureus ATCC 12600; assay: as above; format: cell-based; conditions: for MIC: Staphylococcus aureus, ATCC12600, Mueller-Hinton II agar, 16 h at 37° C., read-out: MIC S. aureus 12600; for inhibition of Staphylococcus aureus compared with Myx B and 7-desmethyl-Myx B: summary of Table 3
Excerpt: as §2

[6] = tested on: Enterococcus faecalis ATCC 19433; assay: as above; format: cell-based; conditions: for MIC: Enterococcus faecalis, ATCC19433, Mueller-Hinton II agar, 16 h at 37° C., read-out: MIC E. faecalis 19433
Excerpt: as §2

[7] = Tolerability upon intravenous injection (peritonitis model study); format: in vivo, Swiss Webster mice; conditions: daily total doses of at least 30 mg/kg; vehicles containing 9% to 19% dimethylacetamide and 8% to 16% Cremophor EL
Description: (§3) Female Swiss Webster mice were experimentally infected by intraperitoneal administration of 5×10^7 colony forming units of Staphylococcus aureus in 10% hog gastric mucin. Test compounds (2-3 mg/ml in vehicle [9-19% dimethyacetamide/8-16% Cremophor EL in water, v/v]), positive controls (2 mg/ml vancomycin in vehicle), and negative controls (vehicle only and saline only), were administered by intravenous injection into a tail vein 1 h and 5 h post-infection (200 μl per injection). Survival was monitored for 12 h post-infection, or for 24, 48, and 72 h post-infection. At the end of the monitoring period, surviving animals were euthanized.

Staphylococcus aureus = assay: Antibacterial efficacy in mouse model of Staphylococcus aureus systemic infection (peritonitis model); format: in vivo, Swiss Webster mice
Description: as §3

[8] = read-out: IC50 M. tuberculosis RNAP
[9] = Table 4a, total dose 30 mg/kg iv, 1 h and 5 h post-infection, vehicle 19% dimethylacetamide/8% Cremophor EL/73% water
[10] = Table 4c, total dose 30 mg/kg iv, vehicle 9% dimethylacetamide/8% Cremophor EL/83% water

| Compound | pIC50 (S. aureus RNA polymerase; read-out: IC50 S. aureus RNAP) | pIC50 [1] | pIC50 [2, 8] | MIC [3] [µg/mL] | MIC [4] [µg/mL] | MIC [5] [µg/mL] | MIC [6] [µg/mL] | pIC50 (S. aureus RNA polymerase) | pIC50 [2] | inhibition of Acinetobacter baumannii (in words) ([4]; summary of Table 3) | inhibition of Staphylococcus aureus compared with Myx B and 7-desmethyl-Myx B [5] | acute toxicity upon intravenous injection [7] | 12-hour survival (Staphylococcus aureus; [9]) [%] | effect on survival in a mouse model of Staphylococcus aureus infection (in words) (Staphylococcus aureus; summary of Tables 4a-4c) | inhibition of Enterococcus faecalis compared with Myx B and 7-desmethyl-Myx B ([6]; summary of Table 3) | 12-hour survival (Staphylococcus aureus; Table 4b, total dose 30 mg/kg iv, vehicle 19% dimethylacetamide/16% Cremophor EL/73% water) [%] | 24-hour survival (Staphylococcus aureus; [10]) [%] | 48-hour survival (Staphylococcus aureus; [10]) [%] | 72-hour survival (Staphylococcus aureus; [10]) [%] |
| --- | --- | --- | --- | --- | --- | --- | --- | --- | --- | --- | --- | --- | --- | --- | --- | --- | --- | --- | --- |
| CCCCCCCC/C=C/C=C(\C)C(=O)c1c(O)cc([C@H](C)CC/C=C/NC(=O)OC)oc1=O (racemic) [compound 4, methyl ((E)-5-(4-hydroxy-3-((2E,4E)-2-methyltrideca-2,4-dienoyl)-2-oxo-2H-pyran-6-yl)hex-1-enyl)carbamate] | 8.08 | 8.34 | 6.49 | < 0.18 | 3.1 (≈ 6.55 µM) | 9.4 (≈ 19.8 µM) | > 40 | – | – | – | – | – | – | – | – | – | – | – | – |
| CCCC/C(C)=C/C=C(\C)C(=O)c1c(O)cc(CCC/C=C/NC(=O)OC)oc1=O [7-desmethyl-Myx B, Methyl ((E)-5-(3-((2E,4E)-2,5-dimethylnona-2,4-dienoyl)-4-hydroxy-2-oxo-2H-pyran-6-yl)pent-1-en-1-yl)carbamate, reference compound] | – | 7.66 | – | 0.195 (≈ 0.467 µM) | > 40 | 3.1 (≈ 7.43 µM) | 25 (≈ 59.9 µM) | 6.85 | 7.09 | not detectably inhibited | – | – | – | – | – | – | – | – | – |
| CCCCC/C=C/C=C(\C)C(=O)c1c(O)cc(C(C)CC/C=C/NC(=O)OC)oc1=O (centres unmarked) [compound 1, Methyl ((E)-5-(4-hydroxy-3-((2E,4E)-2-methyldeca-2,4-dienoyl)-2-oxo-2H-pyran-6-yl)hex-1-en-1-yl)carbamate] | 7.28 | 7.92 | 7.07 | 0.3 (≈ 0.695 µM) | > 40 | 1.4 (≈ 3.24 µM) | > 40 | – | – | – | – | – | – | – | – | – | – | – | – |
| CCCCCC/C=C/C=C(\C)C(=O)c1c(O)cc(C(C)CC/C=C/NC(=O)OC)oc1=O (centres unmarked) [compound 2, Methyl ((E)-5-(4-hydroxy-3-((2E,4E)-2-methylundeca-2,4-dienoyl)-2-oxo-2H-pyran-6-yl)hex-1-en-1-yl)carbamate] | 7.64 | 7.96 | 7.15 | 0.23 (≈ 0.516 µM) | 25 (≈ 56.1 µM) | 1.4 (≈ 3.14 µM) | > 40 | – | – | – | – | – | – | – | – | – | – | – | – |
| CCCCCCC/C=C/C=C(\C)C(=O)c1c(O)cc(C(C)CC/C=C/NC(=O)OC)oc1=O (centres unmarked) [compound 3, Methyl ((E)-5-(4-hydroxy-3-((2E,4E)-2-methyldodeca-2,4-dienoyl)-2-oxo-2H-pyran-6-yl)hex-1-en-1-yl)carbamate] | 7.77 | 8.17 | 6.57 | < 0.18 | 5.6 (≈ 12.2 µM) | 2.4 (≈ 5.22 µM) | > 40 | – | – | – | – | – | – | – | – | – | – | – | – |
| CCCCCC/C(C)=C/C=C(\C)C(=O)c1c(O)cc(CCC/C=C/NC(=O)OC)oc1=O [compound 6, Methyl ((E)-5-(3-((2E,4E)-2,5-dimethylundeca-2,4-dienoyl)-4-hydroxy-2-oxo-2H-pyran-6-yl)pent-1-en-1-yl)carbamate] | 7.92 | 8.41 | 7.33 | 0.076 (≈ 0.171 µM) | 5.5 (≈ 12.3 µM) | 0.45 (≈ 1.01 µM) | 13 (≈ 29.2 µM) | – | – | – | more potently than Myx B and 7-desmethyl-Myx B | – | – | – | – | – | – | – | – |
| CCCCCC/C(C)=C/C=C(\C)C(=O)c1c(O)cc(CCC/C=C/NC(=O)OCC)oc1=O [compound 7, Ethyl ((E)-5-(3-((2E,4E)-2,5-dimethylundeca-2,4-dienoyl)-4-hydroxy-2-oxo-2H-pyran-6-yl)pent-1-en-1-yl)carbamate] | 7.03 | 7.20 | 6.35 | 0.37 (≈ 0.805 µM) | > 40 | 12 (≈ 26.1 µM) | > 40 | – | – | – | – | – | – | – | – | – | – | – | – |
| CCCCC/C(C)=C/C=C(\C)C(=O)c1c(O)cc(C(C)CC/C=C/NC(=O)OC)oc1=O (centres unmarked) [compound 8, Methyl ((E)-5-(3-((2E,4E)-2,5-dimethyldeca-2,4-dienoyl)-4-hydroxy-2-oxo-2H-pyran-6-yl)hex-1-en-1-yl)carbamate] | 8.04 | 8.40 | 7.72 | – | – | 0.5 (≈ 1.12 µM) | – | – | – | – | more potently than Myx B and 7-desmethyl-Myx B | tolerated without acute toxicity | 75 | increase survival | – | – | – | – | – |
| CCCCCC/C(C)=C/C=C(\C)C(=O)c1c(O)cc(C(C)CC/C=C/NC(=O)OC)oc1=O (centres unmarked) [compound 9, Methyl ((E)-5-(3-((2E,4E)-2,5-dimethylundeca-2,4-dienoyl)-4-hydroxy-2-oxo-2H-pyran-6-yl)hex-1-en-1-yl)carbamate] | 7.89 | 8.33 | 7.44 | 0.076 (≈ 0.165 µM) | 5.5 (≈ 12 µM) | 0.34 (≈ 0.74 µM) | 6.4 (≈ 13.9 µM) | – | – | – | more potently than Myx B and 7-desmethyl-Myx B | – | – | – | more potently than Myx B and 7-desmethyl-Myx B | – | – | – | – |
| CCCCC/C(C)=C\C=C(/C)C(=O)c1c(O)cc(CCC/C=C/NC(=O)OC)oc1=O [compound 10, Methyl ((E)-5-(3-((2E,4Z)-2,5-dimethyldeca-2,4-dienoyl)-4-hydroxy-2-oxo-2H-pyran-6-yl)pent-1-en-1-yl)carbamate] | 7.00 | 7.40 | 6.47 | 0.39 (≈ 0.904 µM) | > 40 | 3.3 (≈ 7.65 µM) | > 40 | – | – | – | – | – | – | – | – | – | – | – | – |
| CN[C@H](CC(C)C)C(=O)N[C@H]1C(=O)N[C@@H](CC(N)=O)C(=O)N[C@H]2C(=O)N[C@H]3C(=O)N[C@H](C(=O)N[C@H](C(=O)O)c4cc(O)cc(O)c4-c4cc3ccc4O)[C@H](O)c3ccc(c(Cl)c3)Oc3cc2cc(c3O[C@@H]2O[C@H](CO)[C@@H](O)[C@H](O)[C@H]2O[C@H]2C[C@](C)(N)[C@H](O)[C@H](C)O2)Oc2ccc(cc2Cl)[C@H]1O [vancomycin] | – | – | – | – | – | – | – | – | – | – | – | – | 100 | – | – | 100 | 100 | 100 | 100 |

— patent publication US9133155B2, “Antibacterial agents: high-potency myxopyronin derivatives” (Rutgers, The State University of New Jersey, priority 2010, dated 2015)
